# Read-outs that look alike come from different tables or passages of the source.
# What was measured:
# [1] = system: normal lung cell line (MRC-5); assay: MTT assay, MRC-5 normal cells; assay type: cell-based
# [2] = system: MCF-7 and HEPG-2 cell lines; assay: MTT assay, ranges over both cancer cell lines; assay type: cell-based; settings: Homo sapiens; range spans both cell lines
# Excerpt: The cytotoxic activity of the designed compounds (4a-4l) was obtained by MTT assay (standard 3-(4,5-dimethylthiazol-yl)-2,5-diphenyl-tetrazolium bromide) according to our previous protocols. Two human cancer cell lines including MCF-7 (breast carcinoma) and HEPG-2 (Hepatocellular carcinoma) were purchased from the National Cell Bank of Iran (NCBI, Pasteur Institute, Tehran, Iran). RPMI 1640 culture media was used to culture cancer cell lines. The media was supplemented with 10% fetal bovine serum (FBS) and 1% penicillin–streptomycin (Gibco, USA), and the cells were kept at 37 °C in a humidified CO2 incubator. For the MTT assay, trypsin/EDTA 0.5% solution (Gibco/USA) was applied to harvest cells and seeded in 96-well microplates at a density of 1 × 10^4 cells per well [26]. Five different concentrations of the designed compounds and Cisplatin as the positive control (1–200 μM) were used for treatment in triplicate times. Three untreated wells were used as the negative control. After 72 h, the media was changed by 100 μL fresh MTT solution and incubated for 4 h at 37 °C in the incubator to obtain formazan purple crystals. Finally, the media was removed and 150 μL of DMSO was added and incubated at 37 °C in dark for 10 min to dissolve the crystals. The absorbance of individual wells was read at 490 nm using a microplate ELISA reader. […]
# [3] = system: MCF-7 (breast carcinoma) cell line; assay: MTT assay, MCF-7; assay type: cell-based, human; settings: mean ± SD, triplicate
# Excerpt: (§1) The cytotoxic activity of the designed compounds (4a-4l) was obtained by MTT assay (standard 3-(4,5-dimethylthiazol-yl)-2,5-diphenyl-tetrazolium bromide) according to our previous protocols. Two human cancer cell lines including MCF-7 (breast carcinoma) and HEPG-2 (Hepatocellular carcinoma) were purchased from the National Cell Bank of Iran (NCBI, Pasteur Institute, Tehran, Iran). RPMI 1640 culture media was used to culture cancer cell lines. The media was supplemented with 10% fetal bovine serum (FBS) and 1% penicillin–streptomycin (Gibco, USA), and the cells were kept at 37 °C in a humidified CO2 incubator. For the MTT assay, trypsin/EDTA 0.5% solution (Gibco/USA) was applied to harvest cells and seeded in 96-well microplates at a density of 1 × 10^4 cells per well [26]. Five different concentrations of the designed compounds and Cisplatin as the positive control (1–200 μM) were used for treatment in triplicate times. Three untreated wells were used as the negative control. After 72 h, the media was changed by 100 μL fresh MTT solution and incubated for 4 h at 37 °C in the incubator to obtain formazan purple crystals. Finally, the media was removed and 150 μL of DMSO was added and incubated at 37 °C in dark for 10 min to dissolve the crystals. The absorbance of individual wells was read at 490 nm using a microplate ELISA reader. Excel 2016 and Curve Expert 1.4 were used to analyze the data. The data were presented as mean ± SD for each analysis.
# [4] = system: HEPG-2 (Hepatocellular carcinoma) cell line; assay: MTT assay, HEPG-2; assay type: cell-based, human; settings: mean ± SD, triplicate
# Excerpt: as §1
# [5] = system: a studied cancer cell line; design: method as in PMID 32736079; settings: cited from earlier work
# Hela cell line = system: Hela cell line; design: method as in PMID 33808444; settings: cited from earlier work
# Huha cell line = system: Huha cell line; design: method as in PMID 33808444; settings: cited from earlier work
# [6] = Homo sapiens, MRC5, read-out: IC50 ± SD, MRC-5
SMILES,"IC50 [1, 6]","IC50 ([3]; Homo sapiens, MCF7, 72 h)","IC50 ([4]; Homo sapiens, HepG2, 72 h)",melting point,further results
"Cc1cccc(Cn2c(-n3ccnc3)cc(=O)n(C)c2=O)c1 [Compound 4b, 3-methyl-1-(3-methylbenzyl)-6-(H1-imidazole-1-yl) pyrimidine-2,4-(H1, H3) dione]",61.8 ± 2.3 µM,17.1 ± 1.3 µM,48.5 ± 1.97 µM,123 to 124 °C,IC50 [2]: 17.1 to 48.5 µM
"N.N.[Cl][Pt][Cl] [Cis platin, Cisplatin, reference compound]",,,,,"IC50 ([1]; read-out: IC50 ± SD, MRC-5): 45.2 ± 2.5 µM; IC50 ([3]; 72 h): 20.7 ± 0.83 µM; IC50 ([4]; 72 h): 15.9 ± 1.83 µM"
O=c1[nH]c(=O)n(Cc2ccc(-c3noc(-c4ccc(-c5ccccc5)cc4)n3)cc2)cc1F [A],,,,,IC50 [5]: 0.88 µM
"Cc1ccc(Cn2c(-n3cncn3)cc(=O)n(C)c2=O)cc1 [Compound 4j, 3-methyl-1-(4-methylbenzyl)-6-(H1-1,2,4-triazole-1-yl) pyrimidine-2,4-(H1, H3) dione]",57.3 ± 2.08 µM,16.2 ± 1.02 µM,7.56 ± 5.28 µM,116 to 118 °C,
Cc1ccc(Cn2cc(Cn3c(Cl)cc(=O)n(C)c3=O)nn2)cc1 [B],,,,,IC50 (Hela cell line): 4.5 µM; IC50 (Huha cell line): 7.7 µM
"Cc1nccn1-c1cc(=O)n(C)c(=O)n1Cc1ccc(Br)cc1 [Compound 4g, 3-methyl-1-(4-bromobenzyl)-6-(2-methyl-H1-imidazole-1-yl) pyrimidine-2,4-(H1, H3) dione]",> 200 µM,109 ± 3.74 µM,106 ± 3.03 µM,160 to 162 °C,
"Cc1ccc(Cn2c(-n3ccnc3C)cc(=O)n(C)c2=O)cc1 [Compound 4f, 3-methyl-1-(4-methylbenzyl)-6-(2-methyl-H1-imidazole-1-yl) pyrimidine-2,4-(H1, H3) dione]",> 200 µM,65.5 ± 3.1 µM,55.9 ± 6.58 µM,120 to 122 °C,
"Cn1c(=O)cc(-n2ccnc2)n(Cc2ccc(Br)cc2)c1=O [Compound 4d, 3-methyl-1-(4-bromobenzyl)-6-(H1-imidazole-1-yl) pyrimidine-2,4-(H1, H3) dione]",> 200 µM,131 ± 3.1 µM,177 ± 4.06 µM,110 to 113 °C,
"Cc1nccn1-c1cc(=O)n(C)c(=O)n1Cc1ccccc1 [Compound 4e, 3-methyl-1-(benzyl) 6-(2-methyl-H1-imidazol-1-yl) pyrimidine-2,4-(H1, H3) dione]",> 200 µM,92 ± 2.19 µM,,138 to 140 °C,
"Cn1c(=O)cc(-n2cncn2)n(Cc2ccccc2)c1=O [Compound 4h, 3-methyl-1-(benzyl)-6-(H1-1,2,4-triazole-1-yl) pyrimidine-2,4-(H1, H3) dione]",,,,91 to 93 °C,
"Cc1cccc(Cn2c(-n3cncn3)cc(=O)n(C)c2=O)c1 [Compound 4i, 3-methyl-1-(3-methylbenzyl)-6-(H1-1,2,4-triazole-1-yl) pyrimidine-2,4-(H1, H3) dione]",> 200 µM,43.1 ± 2.07 µM,65.4 ± 2.15 µM,125 to 128 °C,
"Cc1ccc(Cn2c(-n3ccnc3)cc(=O)n(C)c2=O)cc1 [Compound 4c, 3-methyl-1-(4-methylbenzyl)-6-(H1-imidazole-1-yl) pyrimidine-2,4-(H1, H3) dione]",101 ± 3.02 µM,26.1 ± 4.41 µM,27.2 ± 1.66 µM,100 to 102 °C,IC50 [2]: 17.1 to 48.5 µM
"Cn1c(=O)cc(-n2ccnc2)n(Cc2ccccc2)c1=O [Compound 4a, 3-methyl-1-(benzyl)-6-(H1-imidazole-1-yl) pyrimidine-2,4-(H1, H3) dione]",> 200 µM,150.5 ± 0.77 µM,193 ± 7.98 µM,138 to 142 °C,
